Source: patent US10829484B2, “Compounds and methods for kinase modulation, and indications therefor” (Plexxikon Inc., priority 2015, dated 2020)
Substitutions are numbered along the chain they refer to.

How the values were obtained:
BaF3-FLT3-ITD-D835V = biological target: T1, BaF3-FLT3-ITD-D835V (Homo sapiens, UniProt P36888, INS600HVDFREYEYD/D835V, cells depend on it); test: CTB viability assay CS0048, BaF3-FLT3-ITD-D835V; assay type: cell-based, murine; conditions: BaF3-FLT3-ITD-D835V cells, CellTiter Blue viability, 72 hours; read-out: Cell Assay: CS0048: BaF3-FLT3-ITD-D835V CTB:IC50
T1 sequence (P36888 with tags, fused parts or gaps INS600HVDFREYEYD/D835V): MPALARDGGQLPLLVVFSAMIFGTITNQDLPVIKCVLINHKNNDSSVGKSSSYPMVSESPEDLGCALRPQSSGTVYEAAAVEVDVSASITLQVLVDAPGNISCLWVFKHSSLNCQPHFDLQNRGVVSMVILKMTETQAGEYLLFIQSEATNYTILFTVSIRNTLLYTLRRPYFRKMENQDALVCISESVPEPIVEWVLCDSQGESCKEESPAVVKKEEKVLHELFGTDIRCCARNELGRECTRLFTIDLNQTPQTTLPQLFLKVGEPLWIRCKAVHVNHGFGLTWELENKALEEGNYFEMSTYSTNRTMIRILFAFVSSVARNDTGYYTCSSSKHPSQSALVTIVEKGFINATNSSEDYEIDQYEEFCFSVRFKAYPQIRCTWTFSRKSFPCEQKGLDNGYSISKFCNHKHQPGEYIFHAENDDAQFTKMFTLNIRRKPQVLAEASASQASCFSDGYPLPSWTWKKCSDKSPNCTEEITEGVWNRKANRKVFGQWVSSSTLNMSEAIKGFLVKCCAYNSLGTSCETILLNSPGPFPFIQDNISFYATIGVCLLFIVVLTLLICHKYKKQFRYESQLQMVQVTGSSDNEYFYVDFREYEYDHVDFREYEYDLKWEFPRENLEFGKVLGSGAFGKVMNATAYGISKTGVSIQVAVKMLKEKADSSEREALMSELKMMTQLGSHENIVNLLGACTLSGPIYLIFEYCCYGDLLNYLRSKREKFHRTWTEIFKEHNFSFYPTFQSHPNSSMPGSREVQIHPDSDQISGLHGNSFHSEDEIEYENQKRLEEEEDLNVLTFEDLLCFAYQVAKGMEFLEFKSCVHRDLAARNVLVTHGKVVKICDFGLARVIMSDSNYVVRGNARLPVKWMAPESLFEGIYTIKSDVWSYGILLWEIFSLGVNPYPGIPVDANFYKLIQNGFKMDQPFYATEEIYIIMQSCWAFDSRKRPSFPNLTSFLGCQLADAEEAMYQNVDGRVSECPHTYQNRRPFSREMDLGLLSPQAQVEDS
From the text: (§1) Gene constructs containing the human FLT3 sequences FLT3-ITD, FLT3-ITD-F691L, FLT3-ITD-D835V and FLT3-D835V were synthesized by reverse translation of the human protein sequences, with codons optimized for mammalian expression. Sequence of the internal tandem duplication (ITD) was based on the MV4-11 ITD sequence. Synthetic DNA constructs were cloned into the pMSCV puro retroviral vector (Clontech) and transfected into the EcoPack2-293 packaging cell line (Clontech) to generate retroviruses that contain the different FLT3 constructs. Viruses were transduced into the IL-3-dependent, murine […] cell line, Ba/F3, and selected for puromycin resistance and IL-3 independence. All cell lines were cloned by limiting dilution and clones were used for all subsequent cell assays. Overexpression of the FLT3 mutants in the Ba/F3 cells results in constitutive phosphorylation of the exogenous FLT3 protein, which is required for IL-3 independence.
(§2) Cell lines were serum starved overnight in media containing 0.5% FBS, plated at 15,000 cells/well in 96-well white-walled tissue culture plates, and 3-fold serial dilutions of test compounds of Formula I were added for 72 hours at 37° C. CellTiter Blue (CTB, Promega) was added and incubated for an additional 3 hours at 37° C. Fluorescence was read at 560 nm excitation, 590 nm emission. Wells with CTB+media only were used for background subtraction, and the fluorescence of compound-treated cells was normalized to the fluorescence of DMSO-treated cells. IC50s were determined using Igor Pro software. All compounds are assayed in duplicate cell plates.

BaF3-FLT3-ITD-F691L = biological target: T2, BaF3-FLT3-ITD-F691L (Homo sapiens, UniProt P36888, INS600HVDFREYEYD/F691L, cells depend on it); test: CTB viability assay CS0047, BaF3-FLT3-ITD-F691L; assay type: cell-based, murine; conditions: BaF3-FLT3-ITD-F691L cells, CellTiter Blue viability, 72 hours; read-out: Cell Assay: CS0047:BaF3-FLT3-ITD-F691L CTB:IC50
T2 sequence (P36888 with tags, fused parts or gaps INS600HVDFREYEYD/F691L): T1 sequence (P36888 with tags, fused parts or gaps INS600HVDFREYEYD/D835V) with F701L, V845D
From the text: as §1, §2

| SMILES | GI50 (BaF3-FLT3-ITD-D835V) [nM] | GI50 (BaF3-FLT3-ITD-F691L) [nM] |
| --- | --- | --- |
| Cc1nn(C)cc1Nc1ncc(-c2ccc(CC(=O)Nc3cc(C4(C(F)(F)F)CC4)on3)c(F)c2)cc1C#N [P-156, 2-[4-[5-cyano-6-[(1,3-dimethylpyrazol-4-yl)amino]-3-pyridyl]-2-fluorophenyl]-N-[5-[1-(trifluoromethyl)cyclopropyl]isoxazol-3-yl]acetamide] | 10 to 50 | 10 to 50 |
| CC(C)c1nn(C)cc1Nc1ncc(-c2ccc(CC(=O)Nc3cc(C4(C(F)(F)F)CC4)on3)c(F)c2)cn1 [P-168, 2-[2-fluoro-4-[2-[(3-isopropyl-1-methyl-pyrazol-4-yl)amino]pyrimidin-5-yl]phenyl]-N-[5-[1-(trifluoromethyl)cyclopropyl]isoxazol-3-yl]acetamide] | 10 to 50 | 10 to 50 |
| COCCn1ncc(Nc2ncc(-c3ccc(CC(=O)Nc4cc(C5(C(F)(F)F)CC5)on4)c(F)c3)cn2)c1C1CC1 [P-204, 2-[4-[2-[[5-cyclopropyl-1-(2-methoxyethyl)pyrazol-4-yl]amino]pyrimidin-5-yl]-2-fluoro-phenyl]-N-[5-[1-(trifluoromethyl)cyclopropyl]isoxazol-3-yl]acetamide] | 10 to 50 | 10 to 50 |
| O=C(Cc1ccc(-c2cnc(Nc3cnn(CCO)c3C3CC3)nc2)cc1F)Nc1cc(C2(C(F)(F)F)CC2)on1 [P-210, 2-[4-[2-[[5-cyclopropyl-1-(2-hydroxyethyl)pyrazol-4-yl]amino]pyrimidin-5-yl]-2-fluorophenyl]-N-[5-[1-(trifluoromethyl)cyclopropyl]isoxazol-3-yl]acetamide] | 10 to 50 | 10 to 50 |
